Reference: PMC4704819, “Honey Bee Allatostatins Target Galanin/Somatostatin-Like Receptors and Modulate Learning: A Conserved Function?” (PLoS ONE, 2016)
“Also recorded” adds a separate entry of the source. Where a SMILES comes first, the peptide text is derived from it. Bridges are numbered along the chain shown (N, C = ends).

Target: T1, Apime-ASTC-R (Apis mellifera, UniProt A0A7M7GNE5)
T1 sequence (A0A7M7GNE5 1-423): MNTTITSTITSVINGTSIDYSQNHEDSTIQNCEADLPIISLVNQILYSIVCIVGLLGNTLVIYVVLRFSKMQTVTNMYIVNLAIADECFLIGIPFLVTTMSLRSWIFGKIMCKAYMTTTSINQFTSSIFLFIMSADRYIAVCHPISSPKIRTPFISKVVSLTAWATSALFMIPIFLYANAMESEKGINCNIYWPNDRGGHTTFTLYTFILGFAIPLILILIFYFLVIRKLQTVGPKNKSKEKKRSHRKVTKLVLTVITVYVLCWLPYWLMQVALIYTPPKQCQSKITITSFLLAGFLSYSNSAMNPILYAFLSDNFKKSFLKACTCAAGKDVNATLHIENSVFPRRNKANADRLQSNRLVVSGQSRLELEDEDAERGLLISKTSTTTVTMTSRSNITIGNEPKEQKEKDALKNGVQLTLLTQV
Assay: Intracellular cAMP reporter assay, HEK293 cells expressing Apime-ASTC-R
Assay type: cell-based
Settings: CRE-luciferase, IBMX, 10^-14 to 10^-3 M, Fig 5D-E, ASTCC effect at high concentrations (>10 μM)
Protocol: For intracellular cAMP measurements, cells were bathed in trypsin EDTA and collected, then suspended in fresh DMEM. Transfections with pRK5-ApimeAstC-R, pRK5-ApimeAstA-R or empty pRK5 vector were carried out in 15 ml Falcon tubes. Transfection medium for HEK293 cells was prepared using the Lipofectamine LTX kit (Invitrogen) with 2.5 ml Opti-MEM® (Gibco), 12.5 μl Plus™ Reagent and 4 μg of ApimeASTC-R (or ApimeASTA-R, or empty) expression construct, and 2 μg of CRE(6x)-Luc plasmid. The luciferase ORF, downstream of six tandem repeats of a cyclic AMP responsive element (CRE), in front of a minimum collate promoter, was used as a reporter gene (this reporter plasmid has been used by others)
We followed a previousy published protocol: HEK293 cells in Dulbecco's Modified Eagles Medium nutrient mixture F12-Ham (DMEM/F12, Sigma–Aldrich) supplemented with 10% heat-inactivated fetal bovine serum (Gibco), 100 IU/ml penicillin, 100 μg/ml streptomycin (Gibco) were maintained in an incubator at 37°C with constant supply of 5% CO2, until they reached 60–80% confluence. Cells were then bathed in trypsin EDTA (Gibco) until rounded. The flask was then tapped to loosen the cells, which were subsequently washed off with 5 ml DMEM/F12. The cells were gently centrifuged at 800 rpm for 5 minutes and carefully suspended in fresh DMEM, which was divided in two for transfection with receptor constructs or empty vectors. After 5 min at room temperature, 30 μl LTX was added. After an incubation period of 30 min at room temperature, the DNA/LTX mix was added to the cells. The cells were then aliquoted (100 μl per well) into a clear bottom 96-well plate (Greiner bio-one #655090) and incubated overnight (37°C, 5% CO2).
Prior to measuring cAMP, the cell medium was removed by carefully inverting the 96-well plate on filter paper and quickly replaced with 100 μl of DMEM/F12 without phenol red (Invitrogen), but containing 200 μM 3-isobutyl-1-methylxanthine (IBMX, Sigma–Aldrich) to prevent cAMP breakdown, as well as drugs to be tested. In each experiment, some wells were used to measure basal levels of cAMP in the cells (negative control), while others were used to measure cAMP levels in cells exposed to 10 μM forskolin analogue (NKH-477, Sigma Aldrich, positive control). […] All cells were incubated at 37°C and 5% CO2 for 3–4 h to allow transcription of the reporter gene before 100 μl of freshly reconstituted Steadylite Plus™ substrate (PerkinElmer) was added to each well. The 96-well plate was then placed in the dark for 15 min before light emission resulting from luciferase enzymatic activity was recorded. Measurements lasting 0.2 s/well were taken every 55 s for 10 cycles using a FLUOstar Omega microplate reader (BMG Labtech). Results were analyzed by means of the Omega software packages and further processed by Excel and GraphPad Prism softwares. In order to facilitate comparisons across experiments, bioluminescence levels are expressed relative to those in mock-transfected cells (transfected with the vector devoid of the receptor sequence) untreated with NKH-477, which were arbitrarily set at 100.
To test this prediction, we expressed the two receptors separately in HEK293 cells together with the luciferase reporter gene, downstream of the cAMP response element, CRE, but without exogenous G proteins.

SMILES | effect on cAMP levels (bioluminescence), in words | effect on cAMP levels (bioluminescence), in words (listed as ASTCC) | effect on cAMP levels (bioluminescence), in words (listed as ASTC)
CC(C)[C@@H]1NC(=O)[C@H](C)NC(=O)[C@H](CC(N)=O)NC(=O)[C@H](Cc2ccccc2)NC(=O)[C@H](Cc2ccc(O)cc2)NC(=O)[C@@H](NC(=O)[C@H](CCCNC(=N)N)NC(=O)[C@H](Cc2c[nH]c3ccccc23)NC(=O)[C@H](Cc2ccc(O)cc2)NC(=O)[C@@H](NC(=O)[C@H](CCCNC(=N)N)NC(=O)CNC(=O)[C@H](CCCCN)NC(=O)[C@H](C)NC(=O)[C@H](CCC(N)=O)NC(=O)CN)C(C)C)CSSC[C@@H](C(=O)N[C@@H](Cc2ccccc2)C(=O)O)NC(=O)[C@H]([C@@H](C)O)NC1=O [Apime-ASTCC] (H-GQAKGRVYWRCYFNAVTCF-OH; disulfide 11-18; N-terminus assumed) | increased bioluminescence levels at high concentrations; also recorded: small increase in intracellular cAMP | increased cAMP levels in the cells slightly | 
CC(C)[C@@H]1NC(=O)[C@H](C)NC(=O)[C@H](CC(N)=O)NC(=O)[C@H](Cc2ccccc2)NC(=O)[C@H](C)NC(=O)[C@@H](NC(=O)[C@H](CCC(N)=O)NC(=O)[C@H](CCCCN)NC(=O)[C@H](Cc2c[nH]c3ccccc23)NC(=O)[C@H](Cc2ccc(O)cc2)NC(=O)[C@@H](N)CO)CSSC[C@@H](C(=O)N[C@@H](Cc2ccccc2)C(N)=O)NC(=O)[C@H](CO)NC1=O [Apime-ASTC] (H-SYWKQCAFNAVSCF-NH2; disulfide 6-13; N-terminus assumed) | did not change the bioluminescence levels |  | failed to increase intracellular cAMP levels
